Literature values as cited in publication PMC4536914 (Chembiochem : a European journal of chemical biology, 2012).

Biological target: Plk1 PBD (HA-EGFP-Plk1 in mitotic 293A cell lysates) (Homo sapiens, UniProt P53350)
Conditions: previous work; ref [10]

Chain of Plk1 PBD (HA-EGFP-Plk1 in mitotic 293A cell lysates) (P53350 whole entry): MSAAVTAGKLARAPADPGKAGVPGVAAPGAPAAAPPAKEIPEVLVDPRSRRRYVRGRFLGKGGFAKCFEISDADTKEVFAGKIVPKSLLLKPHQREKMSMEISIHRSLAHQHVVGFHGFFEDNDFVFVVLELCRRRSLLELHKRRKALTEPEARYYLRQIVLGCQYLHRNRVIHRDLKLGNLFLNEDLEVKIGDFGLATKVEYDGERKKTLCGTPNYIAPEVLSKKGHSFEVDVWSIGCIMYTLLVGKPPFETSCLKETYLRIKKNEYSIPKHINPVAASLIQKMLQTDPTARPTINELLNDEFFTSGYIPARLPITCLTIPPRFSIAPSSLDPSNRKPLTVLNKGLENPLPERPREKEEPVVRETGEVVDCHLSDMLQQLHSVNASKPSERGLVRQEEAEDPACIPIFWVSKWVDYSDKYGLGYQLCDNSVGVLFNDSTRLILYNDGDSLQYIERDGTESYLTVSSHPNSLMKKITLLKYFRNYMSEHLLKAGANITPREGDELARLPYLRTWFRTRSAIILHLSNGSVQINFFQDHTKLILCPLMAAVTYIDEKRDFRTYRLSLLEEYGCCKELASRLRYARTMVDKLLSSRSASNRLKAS

## LHSpT
  Plk1 PBD-binding affinity relative to parent peptide 1: significantly less Plk1 PBD-binding affinity than the parent peptide 1
